Where a SMILES comes first, the peptide text is derived from it. The star is where a group is joined. Cbz = O=C(OCc1ccccc1)*
Tested on: TDII FGFR3
Assay: Proteasome inhibition in cells expressing TDII FGFR3 (immunoblot)
Format: cell-based, mouse
Conditions: 17-AAG-induced decrease, FIG. 11
Description: The two FGFR3 bands reflect glycosylation differences.

SMILES: CC(C)C[C@@H](C=O)NC(=O)[C@H](CC(C)C)NC(=O)[C@H](CC(C)C)NC(=O)OCc1ccccc1 [MG132] (Cbz-Leu-Leu-Leu-aldehyde)
- TDII FGFR3 degradation: decreased TDII FGFR3 degradation

Reference: patent US8426396B2, “Treatment for achondroplasia” (Shriners Hospitals for Children, priority 2008, dated 2013)
